Structures can show the parent of a compound that is named as a salt.
Experiments:
NCI-H1417 cells = assay: In vitro cell inhibition assay - H1417 cell proliferation (CellTiter-Glo); type: cell-based; conditions: Homo sapiens, NCI-H1417, H1417 small cell lung cancer cell proliferation
Description: 3. In Vitro Cell Inhibition Assay—H1417 Cell Proliferation
The inhibitory effect of the compounds on cell proliferation was assessed by detecting the number of viable cells using the CellTiter-Glo® reagent. […] The compounds were sequentially diluted in a 5-fold concentration gradient with DMSO to obtain 8 different concentrations o. These were diluted with BEGM (containing 10% FBS) cell culture medium to obtain the compound working solution (2×), which was added to the cell supernatant at 100 μL per well. The incubation continued for 7 days at 37° C., 5% CO2. The plate was then removed and equilibrated to room temperature (25° C.) along with the CellTiter-Glo® mixing reagent for 10-30 minutes. After centrifugation, 100 μL of the culture medium was carefully aspirated from each well, and 85 μL of CellTiter-Glo® reagent was added. The cells were thoroughly mixed with the CellTiter-Glo® mixing reagent using a microplate shaker for 2 min. and then incubated at room temperature for 10 min. The 96-well plate was subsequently placed on a multifunctional microplate reader to record the Luminescence values (RLU). • The inhibition rate was calculated using the following formula: […]
(§1) Note: ‘Negative’ refers to the group without inhibitors; ‘Blank’ refers to the group without cells.
(§2) The IC50 value was determined by fitting the inhibition rate by GraphPad Prism software.

LSD1 = LSD1 (Homo sapiens (Human), UniProt O60341); assay: In vitro enzyme inhibition assay - LSD1 (HTRF); type: biochemical
Description: 1. In Vitro Enzyme Inhibition Assay—LSD1
Initially, a master solution of 90 μM test compound (dissolved in DMSO) was prepared and sequentially diluted with DMSO in a 5-fold concentration gradient to yield a total of 9 concentrations of the compound working solution 1 (90×). Subsequently these 9 concentrations of working solution 1 were sequentially diluted by a 30-fold concentration gradient, i.e., 2 μL of working solution 1 was aspirated and added to 58 μL of Buffer, mixed on a vortex mixer with sufficient shaking to yield 9 concentrations of the screening test compound working solution 2 (3×). […] The mixture was incubated at room temperature for 15 minutes. […] Afterward, 2 μL of a termination solution (containing 5.4 mM 2-PCPA) was added to each well, mixed evenly, and incubated for another 15 minutes. Finally 4 μL of a pre-mixed antibody solution of Eu-anti H3K4 (PerkinElmer, TRF0404-D) and allophycocyanin (Prozyme, PJ27S) (1:1) was added to each well, mixed evenly, and incubated for 60 minutes. […] The inhibition rate was calculated through the following formula: […]
(§3) Note: ‘Negative’ refers to the group without the inhibitor; ‘Blank’ refers to the group without the enzyme.
(§4) The IC50 value was calculated by fitting the inhibition rate by GraphPad Prism software, employing log (inhibitor) vs. response-Variable Slope (four parameters) model.

pan-HDAC = assay: In vitro enzyme inhibition assay - HDAC (HDAC-Glo I/II), pan-HDAC; type: biochemical
Description: 2. In Vitro Enzyme Inhibition Assay—HDAC
The effect of the compound on the enzymatic activity of pan-HDAC and two isoforms (HDAC1 and HDAC8) was examined using the HDAC-Glo I/II Assay and Screening System assay to assess the level of inhibition of HDAC protease activity and selectivity in each isoform. The proteins and detection reagents were from the HDAC-Glo™ I/II Assay and Screening System (Promega). A 1 mM stock solution of the compound was prepared in DMSO and diluted in a 5-fold gradient to create a series of 8 concentrations, and a specific volume of the highest concentration was diluted 25 times with HDAC Buffer to obtain 4× working solution of the compound. […] The 384-well plate was then read on a multifunctional microplate reader, with the Luminescence channel selected to record Luminescence values (RLU). The inhibition rate was calculated using the following formula: […]
as §3, §4

NCI-H69 cells = assay: In vitro cell inhibition assay - NCI-H69 cell proliferation (CellTiter-Glo); type: cell-based; conditions: Homo sapiens, NCI-H69, H69 small cell lung cancer cell proliferation
Description: 4. In Vitro Cell Inhibition Assay—NCI-H69 Cell Proliferation
The inhibitory effect of the compounds on cell proliferation was assessed by detecting the number of viable cells using the CellTiter-Glo® reagent. NCI-H69 cells in the logarithmic growth phase were collected and inoculated into transparent bottom 96-well plates at a density 1×10^3 cells per well with 100 μL medium, and incubated at 37° C., 5% CO2 overnight. The compounds were sequentially diluted in a 5-fold concentration gradient with DMSO to obtain 8 different concentrations These were then diluted with RPMI-640 (containing 20% FBS) cell culture medium to obtain the compounds working solution (2×), which was added to the cell supernatant at 100 μL per well. The incubation continued for 7 days at 37° C., 5% CO2. The plate was then removed and equilibrated to room temperature (25° C.) along with the CellTiter-Glo® mixing reagent for 10-30 minutes. After centrifugation at 1200 rpm for 5 minutes, 120 μL of the culture medium was carefully aspirated from each well, and 60 μL of CellTiter-Glo® reagent was added. The cells were thoroughly mixed with the CellTiter-Glo® mixing reagent using a microplate shaker for 2 min. and then incubated at room temperature for 10 min. The 96-well plate was subsequently placed on a multifunctional microplate reader to record the Luminescence values (RLU).
The inhibition rate was calculated using the following formula: […]
as §1, §2

IC50 (NCI-H1417 cells) [µM] | IC50 (LSD1) [µM] | IC50 (pan-HDAC) [nM] | IC50 (NCI-H69 cells) [µM] | Compound
0.0321 |  |  | 0.16 | O=C(/C=C/c1ccc(CNC(=O)c2cc(CN[C@@H]3C[C@H]3c3ccc(F)cc3)nc(-c3ccc(-n4cccn4)cc3)n2)cc1)NO [Example 232, 2-(4-(1H-pyrazol-1-yl)phenyl)-6-((((1R,2S)-2-(4-fluorophenyl)cyclopropyl)amino)methyl)-N-(4-((E)-3-(hydroxyamino)-3-oxoprop-1-en-1-yl)benzyl)pyrimidine-4-carboxamide formate]
0.00233 |  |  | 0.31 | COc1ccc(-c2cnc(N3CCC(NCc4ccc(/C=C/CC(=O)NO)cc4)CC3)c(C#N)c2-c2ccc(C#N)c(F)c2)cc1O [Example 169, (E)-4-(4-(((1-(3-Cyano-4-(4-cyano-3-fluorophenyl)-5-(3-hydroxy-4-methoxyphenyl)pyridin-2-yl)piperidin-4-yl)amino)methyl)phenyl)-N-hydroxybut-3-enamide formate]
0.00497 |  |  | 1.4 | COc1ccc(-c2cnc(N3CCC(NCc4ccc(C5=C(C(=O)NO)CCC5)cc4)CC3)c(C#N)c2-c2ccc(C#N)c(F)c2)cc1O [Example 163, 2-(4-(((1-(3-Cyano-4-(4-cyano-3-fluorophenyl)-5-(3-hydroxy-4-methoxyphenyl)pyridin-2-yl)piperidin-4-yl)amino)methyl)phenyl)-N-hydroxycyclopent-1-ene-1-carboxamide formate]
0.188 | 0.00463 | 266 |  | COc1ccc(-c2c(-c3ccc(C#N)c(F)c3)nc(N3CCC(NCCCCCCC(=O)NO)CC3)n3ccnc23)cc1O [Example 35, 7-((1-(7-(4-Cyano-3-fluorophenyl)-8-(3-hydroxy-4-methoxy-phenyl)imidazo[1,2-c]pyrimidin-5-yl)piperidin-4-yl)amino)-N-hydroxy-heptanamide hydrochloride]
 | 0.254 | 134 |  | N#Cc1ccc(-c2nc(N3CCC(N)CC3)cc(OCCCCCCC(=O)NO)c2-c2ccc(F)c(F)c2)cc1F [Example 6, 7-(6-(4-Aminopiperidin-1-yl)-2-(4-cyano-3-fluorophenyl)-3-(3,4-difluorophenyl)pyridin-4-yl)oxy)-N-hydroxyheptanamide hydrochloride]
 | 0.0754 | 39 |  | Cc1cc(-c2c(OCCCCCCC(=O)NO)cc(N3CCC(N)CC3)nc2-c2ccc(C#N)c(F)c2)ccn1 [Example 10, 7-((6-(4-Aminopiperidin-1-yl)-2-(4-cyano-3-fluorophenyl)-2′-methyl-[3,4′-bipyridin]-4-yl)oxy)-N-hydroxyheptanamide hydrochloride]
 | 0.00092 | 7.31 |  | COc1ccc(-c2c(OCCCCCCC(=O)NO)cc(N3CCC(N)CC3)nc2-c2ccc(C#N)cc2)cc1O [Example 12, 7-((6-(4-Aminopiperidin-1-yl)-2-(4-cyanophenyl)-3-(3-hydroxy-4-methoxyphenyl)pyridin-4-yl)oxy)-N-hydroxyheptanamide]
0.128 |  | 15 |  | N#Cc1ccc(-c2nc(N3CCC(N)CC3)cc(OCCCCCCC(=O)NO)c2-c2ccc(N)cc2)cc1F [Example 5, 7-(3-(4-Aminophenyl)-6-(4-aminopiperidin-1-yl)-2-(4-cyano-3-fluorophenyl)pyridin-4-yl)oxy)-N-hydroxyheptanamide hydrochloride]
0.209 | 0.0119 | 12 |  | CS(=O)(=O)c1ccc(-c2c(OCCCCCCC(=O)NO)cc(N3CCC(N)CC3)nc2-c2ccc(C#N)c(F)c2)cc1 [Example 4, 7-(6-(4-Aminopiperidin-1-yl)-2-(4-cyano-3-fluorophenyl)-3-(4-(methylsulfonyl)phenyl)pyridin-4-yl)oxy)-N-hydroxyheptanamide hydrochloride]
0.226 | 0.0137 | 29 |  | COc1ccc(-c2c(OCCCCCCC(=O)NO)cc(N3CCC(N)CC3)nc2-c2ccc(C#N)c(F)c2)cc1F [Example 3, 7-(6-(4-Aminopiperidin-1-yl)-2-(4-cyano-3-fluorophenyl)-3-(3-fluoro-4-methoxyphenyl)pyridin-4-yl)oxy-N-hydroxyheptanamide hydrochloride]
0.00171 | 0.00074 |  | 1.28 | COc1ccc(-c2cnc(N3CCC(NCc4ccc(/C=C(\C)C(=O)NO)cc4)CC3)c(C#N)c2-c2ccc(C#N)c(F)c2)cc1O [Example 172, (E)-3-(4-(((1-(3-Cyano-4-(4-cyano-3-fluorophenyl)-5-(3-hydroxy-4-methoxyphenyl)pyridin-2-yl)piperidin-4-yl)amino)methyl)phenyl)-N-hydroxy-2-methylacrylamide formate]
0.0145 | 0.00026 | 72 |  | N#Cc1ccc(-c2nc(N3CCC(N)CC3)n3ccnc3c2-c2ccc(NC(=O)CCCCCCC(=O)NO)c(O)c2)cc1F [Example 57, N^1-(4-(5-(4-aminopiperidin-1-yl)-7-(4-cyano-3-fluorophenyl)imidazo[1,2-c]pyrimidin-8-yl)-2-hydroxyphenyl)-N^8-hydroxyoctanediamine diformate]
0.00867 |  |  | 4.17 | COc1ccc(-c2cnc(N3CCC(NCc4ccc(OCC(=O)NO)nc4)CC3)c(C#N)c2-c2ccc(C#N)c(F)c2)cc1O [Example 174, 2-((5-(((1-(3-Cyano-4-(4-cyano-3-fluorophenyl)-5-(3-hydroxy-4-methoxyphenyl)pyridin-2-yl)piperidin-4-yl)amino)methyl)pyridin-2-yl)oxy)-N-hydroxyacetamide formate]
0.00039 | 0.00037 |  | 0.381 | COc1ccc(-c2cnc(N3CCC(NCc4ccc(C5CC5C(=O)NO)cc4)CC3)c(C#N)c2-c2ccc(C#N)c(F)c2)cc1O (centres unmarked) [Example 167, 2-(4-((1-(3-Cyano-4-(4-cyano-3-fluorophenyl)-5-(3-hydroxy-4-methoxyphenyl)pyridin-2-yl)piperidin-4-yl)amino)methyl) phenyl)-N-hydroxycyclopropane-1-carboxamide formate]
0.152 | 0.00012 | 35 |  | Cc1nc(N2CCC(N)CC2)c(C#N)c(-c2ccc(C#N)c(F)c2)c1-c1ccc(OCCCCCCC(=O)NO)c(O)c1 [Example 26, 7-(4-(6-(4-Aminopiperidin-1-yl)-5-cyano-4-(4-cyano-3-fluorophenyl)-2-methylpyridin-3-yl)-2-hydroxyphenoxy)-N-hydroxyheptanamide hydrochloride]

Compound | IC50 (NCI-H1417 cells) [µM] | IC50 (LSD1) [µM] | IC50 (pan-HDAC) [nM] | IC50 (NCI-H69 cells) [µM]
COc1ccc(-c2c(OCCCCCCC(=O)NO)cc(N3C4CCC3CC(N)C4)nc2-c2ccc(C#N)c(F)c2)cc1O (centres unmarked) [Example 9, 7-((6-(3-Amino-8-azabicyclo[3.2.1]octan-8-yl)-2-(4-cyano-3-fluorophenyl)-3-(3-hydroxy-4-methoxyphenyl)pyridin-4-yl)oxy)-N-hydroxyheptanamide hydrochloride] | 0.915 | 0.00182 | 25.3 | 3.1

— patent US20250304549A1, “HYDROXYAMIDE DERIVATIVE AND USE THEREOF” (SICHUAN HUIYU PHARMACEUTICAL CO., LTD., priority 2022, published 2025)
